# Results published in PMC6131161, “Adjunctive use of celecoxib with anti-tuberculosis drugs: evaluation in a whole-blood bactericidal activity model” (Scientific Reports, 2018).
# Values joined by “and” are separate entries in the source; they are usually repeats but may differ in a detail not shown here. Identical values can stand only once. “Also recorded” adds a separate entry of the source.
# Columns and labels:
# [1] = tested on: Mycobacterium tuberculosis (H37Rv); assay: Whole-blood bactericidal activity (WBA) assay, ex vivo, blood of dosed healthy volunteers; format: cell-based; conditions: for WBAcum(0–8) / WBAmax: mean (SD); for bactericidal activity in the WBA assay (in words): drug alone, single oral dose, over 8 hours post-dose
# [2] = Plasma pharmacokinetics in healthy volunteers (LC-MS/MS, non-compartmental analysis); conditions: for Cmax / Tmax / half-life / AUC(0-t): human, plasma, po; for Tmax: median (min, max); for half-life: mean (SD); for AUC(0-t): AUC(0–8)
# clinical = conditions: human, in vivo, po, 10 mg/kg
# [3] = Celecoxib alone 400 mg single oral dose, PZA group, n = 9
# [4] = Celecoxib alone 400 mg single oral dose, RIF group, n = 9
# [5] = celecoxib levels in plasma, PZA + C, celecoxib 400 mg with pyrazinamide 25 mg/kg oral, geometric mean (min, max)
# [6] = celecoxib levels in plasma, RIF + C, celecoxib 400 mg with rifampicin 10 mg/kg oral, geometric mean (min, max)
# [7] = TB drug + Celecoxib: pyrazinamide 25 mg/kg with celecoxib 400 mg oral, PZA group, n = 9
# [8] = TB drug alone: pyrazinamide 25 mg/kg single oral dose, PZA group, n = 9
# [9] = TB drug alone: pyrazinamide 25 mg/kg single oral dose, PZA group, n = 9, listed as PZA
# [10] = 25 mg/kg, pyrazinamide levels in plasma, PZA alone, 25 mg/kg single oral dose, geometric mean (min, max)
# [11] = pyrazinamide levels in plasma, PZA + C, pyrazinamide 25 mg/kg with celecoxib 400 mg oral, geometric mean (min, max)
# [12] = TB drug + Celecoxib: rifampicin 10 mg/kg with celecoxib 400 mg oral, RIF group, n = 7
# [13] = TB drug alone: rifampicin 10 mg/kg single oral dose, RIF group, n = 9
# [14] = TB drug alone: rifampicin 10 mg/kg single oral dose, RIF group, n = 9, listed as RIF
smiles,measurement,setting,value
"Cc1ccc(-c2cc(C(F)(F)F)nn2-c2ccc(S(N)(=O)=O)cc2)cc1 [Celecoxib, celecoxib]",WBAcum(0–8),[1]; [3],0.02 (0.01) ΔlogCFU
same,WBAmax,[1]; [3],0.12 (0.10) ΔlogCFU
same,WBAcum(0–8),"[1]; Celecoxib alone 400 mg single oral dose, RIF + PZA groups combined, n = 18, cumulative over 8 h post-dose",0.03 ± 0.01 ΔlogCFU and 0.03 (0.01) ΔlogCFU
same,WBAmax,"[1]; Celecoxib alone 400 mg single oral dose, RIF + PZA groups combined, n = 18, up to 8 h post-dose, negative = killing",0.14 (0.10) ΔlogCFU
same,WBAcum(0–8),[1]; [4],0.03 (0.01) ΔlogCFU
same,WBAmax,[1]; [4],0.17 (0.09) ΔlogCFU
same,bactericidal activity in the WBA assay (in words),[1],no bactericidal activity; also recorded: no activity alone
same,effect of celecoxib on rifampicin or pyrazinamide drug levels (in words),[2]; celecoxib 400 mg co-administered with rifampicin 10 mg/kg or pyrazinamide 25 mg/kg,no significant effect
same,Cmax and AUC(0–8hrs) of celecoxib when co-administered with the TB drugs (in words),[2]; celecoxib 400 mg with rifampicin or pyrazinamide versus alone,non-significant trend towards lower
same,AUC(0–8),"[2]; celecoxib levels in plasma, C alone, celecoxib 400 mg single oral dose, geometric mean (min, max)","5.97 (2.91, 10.25) h*mg/L"
same,Cmax,"[2]; 400 mg, celecoxib levels in plasma, C alone, celecoxib 400 mg single oral dose, geometric mean (min, max)",1140 ng/mL
same,Tmax,"[2]; 400 mg, celecoxib levels in plasma, C alone, celecoxib 400 mg single oral dose",2 h
same,half-life,"[2]; 400 mg, t1/2, celecoxib levels in plasma, C alone, celecoxib 400 mg single oral dose",269 min
same,AUC(0-t),[2]; [5],4.23 µg·h/mL
same,AUC(0-t),[2]; [6],4.53 µg·h/mL
same,Cmax,[2]; [5],760 ng/mL
same,Cmax,[2]; [6],890 ng/mL
same,Tmax,"[2]; celecoxib levels in plasma, PZA + C, celecoxib 400 mg with pyrazinamide 25 mg/kg oral",3 h
same,Tmax,"[2]; celecoxib levels in plasma, RIF + C, celecoxib 400 mg with rifampicin 10 mg/kg oral",2 h
same,half-life,"[2]; t1/2, celecoxib levels in plasma, PZA + C, celecoxib 400 mg with pyrazinamide 25 mg/kg oral, includes 24 hour data where available",437 min
same,half-life,"[2]; t1/2, celecoxib levels in plasma, RIF + C, celecoxib 400 mg with rifampicin 10 mg/kg oral, includes 24 hour data where available",399 min
"NC(=O)c1cnccn1 [Pyrazinamide, pyrazinamide]","WBAcum(0–8), mean difference for TB drug with and without celecoxib (95% CI)","[1]; PZA group, paired data n = 9","−0.01 (−0.03, 0.00) ΔlogCFU"
same,"WBAmax, mean difference for TB drug with and without celecoxib (95% CI)","[1]; PZA group, paired data n = 9","−0.09 (−0.22, 0.04) ΔlogCFU"
same,WBAcum(0–8),[1]; [7],0.00 (0.01) ΔlogCFU
same,WBAmax,[1]; [7],−0.12 (0.10) ΔlogCFU
same,WBAcum(0–8),[1]; [8],0.01 ± 0.03 ΔlogCFU
same,WBAmax,[1]; [8],−0.03 ± 0.23 ΔlogCFU
same,WBAcum(0–8),[1]; [9],0.01 (0.03) ΔlogCFU
same,WBAmax,[1]; [9],−0.03 (0.23) ΔlogCFU
same,bactericidal activity in the WBA assay (in words),[1],no bactericidal activity; also recorded: appeared to be bacteriostatic
same,AUC(0-t),[2]; [10],207 µg·h/mL
same,Cmax,[2]; [10],35500 ng/mL
same,Tmax,"[2]; 25 mg/kg, pyrazinamide levels in plasma, PZA alone, 25 mg/kg single oral dose",1 h
same,half-life,"[2]; 25 mg/kg, t1/2, pyrazinamide levels in plasma, PZA alone, 25 mg/kg single oral dose",687 min
same,AUC(0-t),[2]; [11],212 µg·h/mL
same,Cmax,[2]; [11],35100 ng/mL
same,Tmax,"[2]; pyrazinamide levels in plasma, PZA + C, pyrazinamide 25 mg/kg with celecoxib 400 mg oral",1 h
same,half-life,"[2]; t1/2, pyrazinamide levels in plasma, PZA + C, pyrazinamide 25 mg/kg with celecoxib 400 mg oral, includes 24 hour data where available",674 min
"CO[C@H]1/C=C/O[C@@]2(C)Oc3c(C)c(O)c4c(O)c(c(/C=N/N5CCN(C)CC5)c(O)c4c3C2=O)NC(=O)/C(C)=C\C=C\[C@H](C)[C@H](O)[C@@H](C)[C@@H](O)[C@@H](C)[C@H](OC(C)=O)[C@@H]1C [Rifampicin, rifampicin]","WBAcum(0–8), mean difference for TB drug with and without celecoxib (95% CI)","[1]; RIF group, paired data n = 7","0.00 (−0.02, 0.02) ΔlogCFU"
same,"WBAmax, mean difference for TB drug with and without celecoxib (95% CI)","[1]; RIF group, paired data n = 7","−0.03 (−0.25, 0.18) ΔlogCFU"
same,WBAcum(0–8),[1]; [12],−0.22 (0.03) ΔlogCFU
same,WBAmax,[1]; [12],−2.51 (0.23) ΔlogCFU
same,WBAcum(0–8),[1]; [13],−0.22 ± 0.02 ΔlogCFU
same,WBAmax,[1]; [13],−2.48 ± 0.24 ΔlogCFU
same,WBAcum(0–8),[1]; [14],−0.22 (0.02) ΔlogCFU
same,WBAmax,[1]; [14],−2.48 (0.24) ΔlogCFU
same,bactericidal activity in the WBA assay (in words),[1],strong bactericidal activity
same,AUC(0-t),clinical; AUC(0–8),92300 ng·h/mL
same,Cmax,clinical; Cmax,19300 ng/mL
same,Tmax,clinical; Tmax,1 h
